Earlier results as cited in US20250235429A1, “TREATMENT OF DISEASES VIA ADMINISTRATION OF BUNTANETAP AND AN ANTIDIABETIC AGENT” (ANNOVIS BIO, INC., priority 2024, published 2025).

Tested on: early AD patients and early PD patients
Conditions: cited from earlier work

CN1CC[C@]2(C)c3cc(OC(=O)Nc4ccccc4)ccc3N(C)C12 (stereo partly drawn) [Buntanetap, (3aR)-1,3a,8-trimethyl-1,2,3,3a,8,8a-hexahydropyrrolo[2,3-b]indol-5-yl phenylcarbamate]
levels of neurotoxic proteins and inflammatory factors (biomarker data) (AD and PD cohorts): trend in lowering
axonal and synaptic function (AD and PD patients): improved
blood brain barrier crossing (AD and PD patients): crossed the blood brain barrier
inflammatory markers (AD and PD patients): reduced
neurotoxic protein biomarkers (AD and PD patients): reduced
ADAS-Cog11 and WAIS coding (psychometric tests) (AD patients, 80 mg QD): statistically significant improvements
cognition as measured by ADAS-Cog11 and WAIS coding speed (AD patients, statistical significance versus baseline at 80 mg dose but not placebo): improved
MDS-UPDRS and WAIS coding (psychometric tests) (PD patients, 5-80 mg QD): statistically significant improvements
motor function as measured by MDS-UPDRS (Part II, III, IV and total) (PD patients, all doses, maximum improvement for 10 & 20 mg): improved
WAIS speed and accuracy (PD patients, significant versus placebo in 5 mg, 20 mg and 80 mg arms): improved
safety and tolerability (doses up to 80 mg in both AD and PD patients): well tolerated
Cmax and AUC (plasma, without evidence for a plateau up to 80 mg QD): increased with dose
